≈ marks a conversion by molar mass, not a printed value.
Columns and labels:
E. cloacae IPM-12 = assay: In vitro antibacterial MIC; assay type: cell-based; settings: Enterobacter cloacae, IPM12, 18 h, pH 7
Protocol: (§1) The minimum inhibitory concentration (MIC) was determined by a two-fold serial tube dilution method using nutrient agar (pH7, Difco containing 10^5 cfu/ml).

E. coli 255 = assay: In vitro antibacterial MIC; assay type: cell-based; settings: Escherichia coli, 255, 18 h, pH 7
Protocol: as §1

E. coli Juhl A15119 = assay: In vitro antibacterial MIC; assay type: cell-based; settings: Escherichia coli, JUHLA15119, 18 h, pH 7
Protocol: as §1

E. faecalis A9808 = assay: In vitro antibacterial MIC; assay type: cell-based; settings: Enterococcus faecalis, A9808, 18 h, pH 7
Protocol: as §1

E. faecium A24817 = assay: In vitro antibacterial MIC; assay type: cell-based; settings: Enterococcus faecium, pH 7, nutrient agar pH7, 32° C., 18 hours
Protocol: as §1

K. pneumoniae PCI 602 = assay: In vitro antibacterial MIC; assay type: cell-based; settings: Klebsiella pneumoniae, PCI602, 18 h, pH 7
Protocol: as §1

M. luteus PCI 1001 = assay: In vitro antibacterial MIC; assay type: cell-based; settings: Micrococcus luteus, PCI1001, pH 7, nutrient agar pH7, 32° C., 18 hours
Protocol: as §1

M. morganii I510 = assay: In vitro antibacterial MIC; assay type: cell-based; settings: Morganella morganii, I510, 18 h, pH 7
Protocol: as §1

P. aeruginosa A20599 = assay: In vitro antibacterial MIC; assay type: cell-based; settings: Pseudomonas aeruginosa, A20599, 18 h, pH 7
Protocol: as §1

P. aeruginosa A9843A = assay: In vitro antibacterial MIC; assay type: cell-based; settings: Pseudomonas aeruginosa, 18 h, pH 7
Protocol: as §1

P. aeruginosa IPM-8 = assay: In vitro antibacterial MIC; assay type: cell-based; settings: Pseudomonas aeruginosa, IPM8, 18 h, pH 7
Protocol: as §1

P. aeruginosa IPM-9 = assay: In vitro antibacterial MIC; assay type: cell-based; settings: Pseudomonas aeruginosa, IPM9, 18 h, pH 7
Protocol: as §1

P. aeruginosa KKA19 = assay: In vitro antibacterial MIC; assay type: cell-based; settings: Pseudomonas aeruginosa, pH 7, nutrient agar pH7, 32° C., 18 hours
Protocol: as §1

P. cepecia A21213 = assay: In vitro antibacterial MIC; assay type: cell-based; settings: 18 h, pH 7
Protocol: as §1

P. cepecia No. 651 = assay: In vitro antibacterial MIC; assay type: cell-based; settings: 18 h, pH 7
Protocol: as §1

P. mirabilis IFO 3849 = assay: In vitro antibacterial MIC; assay type: cell-based; settings: Proteus mirabilis, IFO3849, 18 h, pH 7
Protocol: as §1

P. rettgeri IPM-14 = assay: In vitro antibacterial MIC; assay type: cell-based; settings: Providencia rettgeri, IPM14, 18 h, pH 7
Protocol: as §1

P. vulgaris IPM-13 = assay: In vitro antibacterial MIC; assay type: cell-based; settings: Proteus vulgaris, IPM13, 18 h, pH 7
Protocol: as §1

S. aureus A15036 (MRSA) = assay: In vitro antibacterial MIC; assay type: cell-based; settings: Staphylococcus aureus, 18 h, pH 7
Protocol: as §1

S. aureus IPM-24 (MRSA) = assay: In vitro antibacterial MIC; assay type: cell-based; settings: Staphylococcus aureus, 18 h, pH 7
Protocol: as §1

S. aureus smith = assay: In vitro antibacterial MIC; assay type: cell-based; settings: Staphylococcus aureus, 18 h, pH 7
Protocol: as §1

S. epidermidis 11-1230 = assay: In vitro antibacterial MIC; assay type: cell-based; settings: Staphylococcus epidermidis, 111230, 18 h, pH 7
Protocol: as §1

S. marcescens IPM-15 = assay: In vitro antibacterial MIC; assay type: cell-based; settings: Serratia marcescens, IPM15, 18 h, pH 7
Protocol: as §1

S. marcescens IPM-16 = assay: In vitro antibacterial MIC; assay type: cell-based; settings: Serratia marcescens, IPM16, 18 h, pH 7
Protocol: as §1

X. maltophilia GN12873 = assay: In vitro antibacterial MIC; assay type: cell-based; settings: Stenotrophomonas maltophilia, pH 7, nutrient agar pH7, 32° C., 18 hours
Protocol: as §1

X. maltophilia No. 661 = assay: In vitro antibacterial MIC; assay type: cell-based; settings: Stenotrophomonas maltophilia, pH 7, nutrient agar pH7, 32° C., 18 hours
Protocol: as §1

[1] = system: Candida albicans ATCC 38247; assay: In vitro antifungal MIC; assay type: cell-based
Protocol: (§2) The antifungal MICs of dynemicin C and its triacetate were determined by an agar dilution method on yeast morphology agar adjusted to pH7.0 with 1/15M phosphate buffer. A 5 μl aliquot of fungal suspension containing 10^6 cells/ml was inoculated onto the surface of the antibiotic-containing agar plates with a multiinoculator.

[2] = system: Cryptococcus neoformans D49; assay: In vitro antifungal MIC; assay type: cell-based
Protocol: as §2

C. neoformans IAM4514 = assay: In vitro antifungal MIC; assay type: cell-based, Cryptococcus neoformans
Protocol: as §2

[3] = system: B16-F10 (murine melanoma) cells; assay: In vitro cytotoxicity; assay type: cell-based; settings: Mus musculus, 72 hours, 37° C., neutral red, 540 nm
Protocol: (§3) Dynemicin C and its triacetate derivative were tested for in vitro cytotoxicity against murine and human tumor cell lines. Dynemicin A and its triacetate derivative were used as reference compounds. B16-F10 (murine melanoma) cells were grown to the logarithmic phase in enriched Eagle minimum essential medium (MEM) supplemented with fetal calf serum (FCS, 10%) and kanamycin (60 mcg/ml) and HCT-116 (human colon carcinoma) cells in Maccoy's 5A medium supplemented with FCS (10%), penicillin (100 μ/ml) and streptomycin (100 mcg/ml), and were harvested and inoculated into wells of the 96- or 24-well tissue culture plate with test materials at concentrations of 1.5×10^4, 1.3×10^4, 1.3×10^4, 2.5×10^4 and 3.0×10^4 cells/ml., respectively. They were incubated at 37° C. in a humidified atmosphere of 5% CO2 and 95% air for 72 hours. The cytotoxic activities were determined colorimetrically at 540 nm after staining viable cells with 0.006% neutral red solution.

[4] = system: HCT-116 (human colon carcinoma) cells; assay: In vitro cytotoxicity; assay type: cell-based; settings: 72 hours, 37° C., neutral red, 540 nm
Protocol: as §3

gram-positive organisms = assay: In vitro antibacterial activity, gram-positive organisms as a group; assay type: cell-based
Protocol: as §1

gram-negative organisms = assay: In vitro antibacterial activity, gram-negative organisms as a group; assay type: cell-based; settings: other gram-negatives than P. aeruginosa, except Enterobacter cloacae IPM-12 and Serratia marcescens IPM-16
Protocol: as §1

[5] = system: Pseudomonas aeruginosa species; assay: In vitro antibacterial activity, Pseudomonas aeruginosa as a group; assay type: cell-based; settings: in words
Protocol: as §1

[6] = system: murine and human tumor cell lines; assay: In vitro cytotoxicity, tumor cell lines as a group; assay type: cell-based; settings: in words
Protocol: as §3

Solubility = assay type: physicochemical

COC1=C(C=O)C(C)C23OC24c2cc(O)c5c(c2NC3C#CC=CC#CC14)C(=O)c1c(O)ccc(O)c1C5=O (centres unmarked) [Dynemicin C]
MIC (E. cloacae IPM-12): 100 µg/mL (≈ 192 µM)
MIC (E. coli 255): 100 µg/mL (≈ 192 µM)
MIC (E. coli Juhl A15119): 100 µg/mL (≈ 192 µM)
MIC (E. faecalis A9808): 0.0008 µg/mL (≈ 0.00153 µM)
MIC (E. faecium A24817): 0.0008 µg/mL (≈ 0.00153 µM)
MIC (K. pneumoniae PCI 602): 0.8 µg/mL (≈ 1.53 µM)
MIC (M. luteus PCI 1001): 0.0008 µg/mL (≈ 0.00153 µM)
MIC (M. morganii I510): 0.1 µg/mL (≈ 0.192 µM)
MIC (P. aeruginosa A20599): 100 µg/mL (≈ 192 µM)
MIC (P. aeruginosa A9843A): 100 µg/mL (≈ 192 µM)
MIC (P. aeruginosa IPM-8): 100 µg/mL (≈ 192 µM)
MIC (P. aeruginosa IPM-9): 100 µg/mL (≈ 192 µM)
MIC (P. aeruginosa KKA19): 100 µg/mL (≈ 192 µM)
MIC (P. cepecia A21213): 0.1 µg/mL (≈ 0.192 µM)
MIC (P. cepecia No. 651): 0.1 µg/mL (≈ 0.192 µM)
MIC (P. mirabilis IFO 3849): 0.8 µg/mL (≈ 1.53 µM)
MIC (P. rettgeri IPM-14): 0.1 µg/mL (≈ 0.192 µM)
MIC (P. vulgaris IPM-13): 0.05 µg/mL (≈ 0.0959 µM)
MIC (S. aureus A15036 (MRSA)): < 0.0002 µg/mL
MIC (S. aureus IPM-24 (MRSA)): < 0.0002 µg/mL
MIC (S. aureus smith): < 0.0002 µg/mL
MIC (S. epidermidis 11-1230): < 0.0002 µg/mL
MIC (S. marcescens IPM-15): 25 µg/mL (≈ 47.9 µM)
MIC (S. marcescens IPM-16): 100 µg/mL (≈ 192 µM)
MIC (X. maltophilia GN12873): 100 µg/mL (≈ 192 µM)
MIC (X. maltophilia No. 661): 1.6 µg/mL (≈ 3.07 µM)
activity compared with ketoconazole ([1]; Candida albicans ATCC 38247, amphotericin resistant, in words): stronger than that of ketoconazole
MIC ([1]; Candida albicans, ATCC38247, 40 h, pH 7): 0.8 µg/mL (≈ 1.53 µM)
activity (compared with amphotericin B and ketoconazole) ([2]; Cryptococcus neoformans D49, in words): much more active than amphotericin B and ketoconazole
MIC ([2]; Cryptococcus neoformans, D49, 40 h, pH 7): 0.0063 µg/mL (≈ 0.0121 µM)
activity (compared with amphotericin B and ketoconazole) (C. neoformans IAM4514; C. neoformans IAM4514, in words): much more active than amphotericin B and ketoconazole
MIC (C. neoformans IAM4514; Cryptococcus neoformans, IAM4514, 40 h, pH 7): 0.013 µg/mL (≈ 0.0249 µM)
IC50 [3]: 0.0028 µg/mL (≈ 0.00537 µM)
IC50 [4]: 0.0086 µg/mL (≈ 0.0165 µM)
activity against gram-positive organisms compared with amikacin (gram-positive organisms; comparison in words): much better activities against these organisms than amikacin
activity against gram-positive organisms (gram-positive organisms; in words): strong activity
activity against gram-negatives compared with amikacin (gram-negative organisms): activity better than amikacin
activity against Pseudomonas aeruginosa species [5]: did not show any activity
cytotoxic activity compared with dynemicin A [6]: almost the same activity as dynemicin A
solubility in 1,4-dioxane (Solubility; 1,4-dioxane): soluble
solubility in acetonitrile (Solubility; acetonitrile): soluble
solubility in dimethylformamide (Solubility; dimethylformamide): soluble
solubility in dimethylsulfoxide (Solubility; dimethylsulfoxide): soluble
solubility in ethyl acetate (Solubility; ethyl acetate): slightly soluble
solubility in methanol (Solubility; methanol): slightly soluble
solubility in n-hexane (Solubility; n-hexane): practically insoluble
solubility in water (Solubility; water): practically insoluble

Reference: patent publication US5162330A, “Dynemicin C antibiotic, its triacetyl derivative and pharmaceutical composition containing same” (Bristol-Myers Squibb Co., priority 1990, dated 1992)
